Results: patent US6448283B1, “Methods for preventing/treating damage to sensory hair cells and cochlear neurons” (Cephalon, Inc., priority 1998, dated 2002)
“And” between values parts separate entries of the source, which are not always exact repeats. Equal values may be shown once.

How the values were obtained:
[1] = system: JNK signaling cascade (JNK and c-Jun phosphorylation); experiment: Phospho-JNK and phospho-c-Jun immunostaining in neomycin-exposed cochlear explants; type: cell-based, rat; details: 500 nM Formula II coincubated with neomycin; n=5 explants
Protocol: Six, 12 and 24 hr after adding 100 μM neomycin to the medium, cochlear cultures were fixed with 4% paraformaldehyde in PBS for 30 min. The specimens were prepared for 5 um-thick paraffin sections. They were stained with a TUNEL-kit, mounted in Vectashield containing DAPI nuclear counterstain (Vector, Burlingame, Calif.), and viewed under an Olympus Provis microscope (Tokyo, Japan) using epifluorescence. In addition to TUNEL-staining, DNA fragmentation was verified under UV illumination using DAPI counterstain.
Adjacent sections were immunostained with a polyclonal phospho-c-Jun antibody (Ser73, 1:500; New England Biolabs, Beverly, Mass.) and a polyclonal phospho-JNK antibody (Thr183/Tyr185, 1:250 dilution; New England Biolabs). The phospho-JNK antibody detects the dually phosphorylated isoforms of JNK 1, 2 and 3. The specificity of the phospho-specific antibodies was verified by Western blotting using sorbitol-treated PC 12 cells. Phospho-JNK antibody recognized the phosphorylated p54/p46 JNK and phospho-c-Jun antibody the phosphorylated p46 c-Jun in sorbitol-treated, but not in untreated PC 12 cells. […] Calbindin immunoreaction was detected using the ABC method and diaminobenzidine without tyramide signal amplification, and the sections were lightly counterstained with 1% toluidine blue. […]

[2] = system: motorneurons; details: by inhibiting the JNK signaling pathway; Maroney et al., 1998; cited from earlier work
[3] = system: pigmented guinea pigs exposed to traumatic octave band noise; experiment: ABR hearing thresholds after noise trauma (Example 1); type: in vivo; details: guinea pig; 1 mg/kg s.c. daily from 24 h before noise to day 21; noise 4.0 kHz 125 dB SPL 105 min; across test frequencies; 21 days after exposure
Protocol: Baseline hearing of 8 pigmented guinea pigs (200-300 g) was tested by ABR as described below. ABR is a measure of hearing function. Four animals were treated with daily subcutaneous (s.c.) injections of the compound of Formula II, 1 mg/kg, starting 24 hours prior to noise trauma and lasting until 21 days after exposure to the noise trauma. Four animals served as controls and received only vehicle (the fourth animal died under anaesthesia). All the animals were exposed to traumatic octave band noise, center frequency 4.0 kHz, 125 dB SPL (sound pressure level) for 105 min.
ABR thresholds were again determined 21 days after exposure to the noise trauma. ABR thresholds were measured with System II hardware and BioSig software (Tucker Davis Technology). Stimulus with 1 ms cos2 rise and fall and 18 ms plateau was presented with Beyer earphone connected to speculum (placed in the meatus of the external ear canal) at a rate of 20 Hz. Stimulus was calibrated against a Bruel & Kjaer 4134 microphone connected to a Bruel & Kjaer 2203 sound level meter. A Grass P15 preamplifier and custom amplifier provided gain of 10^5 and filtering of 0.3 to 3.0 kHz. Two responses were obtained at each intensity level. Thresholds were determined for the frequencies 2, 4, 8, 16 and 32 kHz from a set of responses at varying intensities with 5 dB intervals and 1000 sweeps near threshold.

[4] = system: noise-exposed guinea pigs; experiment: ABR threshold shifts after noise exposure (Example 2); type: in vivo, guinea pig; details: day 6 postexposure; n=11; P<0.05 at 4 and 8 kHz, P<0.01 at 16 kHz
Protocol: Adult Dunkin-Hartley female guinea pigs (weight 300-500 g) were exposed, 4 animals at a time, to octave band noise, with a center frequency of 4.0 kHz, 120 dB SPL for 6 hr as described in Example 1. Fragmented hair cell nuclei were assessed from noise-exposed cochleas immediately and 1, 2, 4, 6, 8 and 14 days after noise exposure. Noise-exposed and nonexposed guinea pigs were decapitated under deep anesthesia and inner ears were perilymphatically perfused with 4% paraformaldehyde in PBS, and processed for […] paraffin-embedded sections (Ylikoski et al., Hear Res 65:69-78, 1993; Ylikoski et al., Hear Res 124:17-26, 1998). TUNEL-staining was performed as described below. DNA fragmentation was also verified by DAPI nuclear counterstain (see below). Further, trauma-induced nuclear fragmentation was verified by morphological analysis of contralateral cochleas that were perilymphatically fixed with 2.5% glutaraldehyde in 0.1M phosphate buffer, pH 7.4, postfixed with 1% osmium tetroxide, embedded in epoxy resin, and prepared for surface preparations (see below). […]
Auditory brainstem responses (ABRs) were measured 2 days before noise exposure, and 2, 6 and 14 days after exposure under anesthesia (xylazine 10 mg/kg and ketamine 40 mg/kg). […] Hearing threshold was determined from a set of responses at varying intensities. […]

[5] = system: inner and outer hair cells of the cochlea; experiment: Hair cell counts, delayed dosing after noise trauma; type: in vivo, guinea pig
Protocol: Guinea pigs were exposed to 120 dB, 4 kHz noise for 6 hr. The compound of Formula II was administered beginning 2 hours to 1 day prior to noise trauma, or 1 day after noise trauma, or 4 days after noise trauma. Dosing continued for 2 weeks after noise exposure. As described above, cochleas were prepared and numbers of preserved and lost inner hair cells (IHCs) and outer hair cells of different rows (OHC1, OHC2, OHC3) were counted 2 weeks post noise trauma.

CCSCc1ccc2c(c1)c1c3c(c4c5cc(CSCC)ccc5n5c4c1n2C1C[C@](O)(C(=O)OC)[C@]5(C)O1)CNC3=O [Formula II]
induction of JNK and c-Jun phosphorylation in hair cells [1]: prevented
death of motorneurons in vitro [2]: prevent death of motorneurons in vitro
ABR threshold shift [3]: 20-40 dB
ABR threshold shifts versus noise-exposed control group [4]: significantly less
OHC loss total (%) ([5]; 1 day delayed dosing, single cochlea): 6.4% and 3.7% and 1.2% and 2.0% and 5.4% and 2.4%
loss of hair cells versus control cochleas ([5]; following exposure to noise, 1 day delayed P<0.01, 4 day delayed P<0.05): less loss of hair cells
